Test results: patent publication US20250295656A1, “COMBINATION OF LURBINECTEDIN AND IMMUNE CHECKPOINT INHIBITORS” (priority 2020, published 2025)

Key:
[1] = test system: human osteosarcoma U2OS cells; experiment: Loss of viability by nuclear morphology (Hoechst 33342), automated microscopy; assay type: cell-based; details: lurbinectedin 1 nM to 1 μM, 4, 8, 16 and 32 hours, comparable to MTX 1 and 3 μM
Method: (a) Human osteosarcoma U2OS (a), human breast cancer HCC70 (b) human colon cancer HT29 cells (c) and murine methylcholantrene-induced fibrosarcoma MCA205 cells (d) were treated with lurbinectedin (Lurbi, 1 nM, 10 nM, 100 nM and 1 μM) for the indicated times. Subsequently, the cells were stained with 1 μM Hoechst 33342 and 1 μM propidium iodide and assessed for the loss of viability by automated image acquisition. Images were segmented, cellular debris was excluded and the number of cells with normal nuclear morphology was enumerated. Cells stably expressing CALR-GFP were treated as above. Following the cells were fixed with 3.7% of PFA, stained with 1 μM Hoechst 33342 and assessed by automated image acquisition. Images were segmented, cellular debris was excluded and CALR-GFP granularity (a surrogate marker of CALR exposure) was evaluated in the cytoplasmic region of cells with normal nuclear morphology. Wild type cells were treated as above and then assessed for cytoplasmic quinacrine granularity (after staining with the ATP-sensitive dye quinacrine together with Hoechst 33342) by automated image acquisition, segmentation and analysis. Cells stably expressing HMGB1-GFP were treated as above and then assessed for nuclear HMGB1-GFP fluorescence intensity. The cells were fixed and stained with Hoechst 33342 and images were acquired, segmented and analyzed. […]

MCA205 tumours = experiment: Established MCA205 tumours in immunodeficient mice; assay type: in vivo; details: athymic (nu/nu) mice; 0.18 mg/kg i.v. day 1, 7 and 14
Method: Live MCA205 cells were injected subcutaneously (s.c.) into immunocompetent C57BL/6 mice or immunodeficient nu/nu mice as depicted in the scheme in (a) When tumours became palpable, mice were intravenously ([…]). Tumour growth was assessed regularly for the following 30 days. Data is depicted as tumour growth curves (b,d) and overall survival plots (c,e). Data were analyzed with TumGrowth.
In order to assess the capacity of lurbinectedin to stimulate anticancer immunity in a monotherapeutic approach and to convert tumour cells into a therapeutic vaccine we exposed murine fibrosarcoma cells to the drug in vitro (in conditions previously established to induce a sufficient amplitude of cell death) and then injected the dying cancer cells into syngeneic immunocompetent mice. […] Next we evaluated the effect of lurbinectedin on established cancers growing on immunocompetent or immunodeficient mice. […]
Six- to eight-week-old female wild-type C57BL/6 and nu/nu mice were obtained from Envigo France (Huntingdon, UK) and were kept in the animal facility at the Gustave Roussy Campus Cancer in a specific pathogen-free and temperature-controlled environment with 12 h day, 12 h night cycles and received food and water ad libitum. […] Animals were monitored and tumour growth documented regularly until end-points were reached. […]

## COc1ccc2[nH]c3c(c2c1)CCN[C@]31CS[C@@H]2c3c(OC(C)=O)c(C)c4c(c3[C@H](COC1=O)N1[C@@H]2[C@H]2c3c(cc(C)c(OC)c3O)C[C@@H]([C@@H]1O)N2C)OCO4 [lurbinectedin]
[1]
  cellular viability: dose- and time-dependent drop
MCA205 tumours
  therapeutic effect (tumour growth, overall survival): lost
